Data set [1] deals with Ryanodine receptor (Hemicentrotus pulcherrimus, UniProt Q8TA74). Kind of data set: (§1) Agonist activity at ryanodine receptor in Hemicentrotus pulcherrimus egg homogenate assessed as increase in intracellular calcium mobilization by Fluo-3 dye based fluorimetric assay. The format is cell-based.
The target in data set [2] is Ryanodine receptor (Hemicentrotus pulcherrimus) (UniProt Q8TA74). The data set can be described thus: Antagonist activity at ryanodine receptor in Hemicentrotus pulcherrimus egg homogenate assessed as decrease in intracellular calcium mobilization by Fluo-3 dye based fluorimetric assay. The format is cell-based.
The species named for data set [3] is Homo sapiens. The data set can be described thus: Agonist activity at ryanodine receptor (unknown origin) in T cells assessed as increase in intracellular calcium mobilization by Fluo-3 dye based fluorimetric assay. Format: cell-based.
Data set [4] in a line: Dissociation constant, pKa of the compound. The format is physicochemical.
The species named for data set [5] is Homo sapiens. Kind of data set: Agonist activity at ryanodine receptor (unknown origin) in neuronal cells assessed as increase in intracellular calcium mobilization by Fluo-3 dye based fluorimetric assay. Format: cell-based.
The target of data set [6] is Ryanodine receptor (Hemicentrotus pulcherrimus) (UniProt Q8TA74). Described as §1. The format is cell-based.

Activity calls are given as the source filed them. No cut-off for these calls is given here.

`Nc1c2nc(Cl)n3c2nc[n+]1[C@@H]1S[C@H](COP(=O)([O-])OP(=O)(O)OC[C@H]2O[C@@H]3[C@H](O)[C@@H]2O)[C@@H](O)[C@H]1O`: the EC50 in data set [1] worked out at 12000 nM. Further, the inhibition result in data set [2] is “inactive”.
With `Nc1c2ncn3c2nc[n+]1[C@@H]1S[C@H](COP(=O)([O-])OP(=O)(O)OC[C@H]2O[C@@H]3[C@H](O)[C@@H]2O)[C@@H](O)[C@H]1O`, the result in data set [3] and in data set [5] was Active. The molecule further registered a pKa in data set [4] of 8. The EC50 in data set [1] was 39 nM.
For `Nc1nc2c(N)[n+]3cnc2n1[C@@H]1O[C@H](COP(=O)([O-])OP(=O)(O)OC[C@H]2C[C@@H]3[C@H](O)[C@@H]2O)[C@@H](O)[C@H]1O`, the outcome in data set [6] was Active.
For the molecule `Nc1c2ncn3c2nc[n+]1[C@@H]1C[C@H](COP(=O)([O-])OP(=O)(O)OC[C@H]2O[C@@H]3[C@H](O)[C@@H]2O)[C@@H](O)[C@H]1O`, the result in data set [3] was inactive. In addition, the pKa in data set [4] was 9. Further, the result in data set [5] was Active.
As to `Nc1c2nc(Cl)n3c2nc[n+]1[C@@H]1C[C@H](COP(=O)(O)OP(=O)([O-])OC[C@H]2O[C@@H]3[C@H](O)[C@@H]2O)[C@@H](O)[C@H]1O`, in data set [6], the result was Active.
For `[N-]=[N+]=Nc1nc2c(N)[n+]3cnc2n1[C@@H]1O[C@H](COP(=O)(O)OP(=O)([O-])OC[C@H]2S[C@@H]3[C@H](O)[C@@H]2O)[C@@H](O)[C@H]1O`, the EC50 in data set [1] came out at 37000 nM.
Take `Nc1nc2c(N)[n+]3cnc2n1[C@@H]1O[C@H](COP(=O)(O)OP(=O)([O-])OC[C@H]2S[C@@H]3[C@H](O)[C@@H]2O)[C@@H](O)[C@H]1O`: the EC50 in data set [1] amounted to 870 nM. Further, the inhibition result in data set [2] is “inactive”.
`[N-]=[N+]=Nc1nc2c(N)[n+]3cnc2n1[C@@H]1O[C@H](COP(=O)(O)OP(=O)([O-])OC[C@H]2C[C@@H]3[C@H](O)[C@@H]2O)[C@@H](O)[C@H]1O`: the outcome in data set [6] was Active.
Turning to `Nc1c2ncn3c2nc[n+]1[C@@H]1O[C@H](COP(=O)([O-])OP(=O)(O)OC[C@H]2O[C@@H]3[C@H](O)[C@@H]2O)[C@@H](O)[C@H]1O`, in data set [3], the result was Active. The pKa in data set [4] was 8.3. The Activity result in data set [6] was “Dose-dependent effect”. For the same molecule, in data set [1], the EC50 amounted to 210 nM.
